According to patent US10500198B2, “Bis-benzylidine piperidone proteasome inhibitor with anticancer activity” (The Johns Hopkins University, priority 2013, dated 2019):

What was measured:
[1] = Complete blood counts and blood chemistry of C57BL/6 mice carrying TC-1 tumor; details: C57BL/6 mice with TC-1 tumor; nine doses every third day: RA190 40 mg/kg p.o., Bortezomib 1.5 mg/kg i.p.; mean ± SD, n = 3;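 note: blood drawn from the heart after euthanasia, cell counts read on an automated hemocytometer, heparinized plasma analyzed on an automated clinical chemistry analyzer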
HeLa = test: Cell viability after 48-hr treatment (Table 1); format: cell-based, human; details: 48-hr treatment; XTT assay; read-out: IC50, HeLa
Procedure, shortened: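 Viable cells were then quantified by a 1-2 hr MTS reaction with absorbance measured at 490 nm.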

OVCAR3 = test: Cell viability after 48-hr treatment (Table 1); format: cell-based, human; details: XTT assay
Procedure, shortened: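 ES-2 cells were plated at 5,000 cells/well; the other lines used 10,000-20,000 cells/well. MTS reagent was added for 1-2 hr before measuring absorbance at 490 nm.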

ES2-luciferase tumor = ES2-luciferase tumor in nude mice; format: in vivo, mouse; details: 10 mg/kg i.p. every day, 14 days
Excerpt: Prior to and at the end of the treatment, mice were imaged for bioluminescence. […] The mice were imaged before and at the end of the treatment for bioluminescence levels. We have previously described the susceptibility of human ovarian cancer lines to proteasome inhibition. […] Prior to and 7 and 14 days after initiation of treatment, the mice were imaged for luciferase activity.
For TC-1 tumors, C57BL/6 mice (8/group) were challenged subcutaneously with 5×10^4 TC-1 cells/mice. Tumors grew for approximately 7 days until they were palpable, whereupon the mice were weighed and treatment was initiated. Tumor size was measured with a digital caliper and calculated based on the formula: [largest diameter×(perpendicular diameter)2]π/6. Nude mice (8 per group) were inoculated with 1×10^6 EΩ-Luciferase cells i.p. in 100 μL PBS. At day 3 mice were imaged for basal level luminescence expression. […] NOG mice (5 per group) were inoculated with 1×10^6 NCI-H929-GFP-Luc cells i.v., and after 4 weeks, mice were imaged for their luciferase activity and divided into two groups.

[2] = tested on: p53 in HeLa, CaSki, and SiHa cells; test: Immunoblot for p53 in cervical cancer cells; format: cell-based; details: 24 hr
[3] = Pharmacokinetic measurements, plasma; format: in vivo, mouse; details: 10 mg/kg i.p., BALB/c mice
Experimental: Tissue was harvested at 48 hr after single-dose intraperitoneal administration in non-tumor bearing mice. Blood was collected by cardiac puncture under anesthesia into heparinized syringes and centrifuged to obtain plasma. Tissues were rapidly dissected and snap frozen in liquid nitrogen. Samples were stored frozen at −70° C. until analysis. […] Tissue homogenates were prepared at a concentration of 200 mg/mL in PBS and further diluted 1:10 in mouse plasma before extraction using acetonitrile containing temazepam (100 ng/mL). Separation was achieved on Waters X-Terra™ C18 (50 mm×2.1 mm i.d., 3 μm) at room temperature using isocratic elution with acetonitrile/water mobile phase (70:30, v/v) containing 0.1% formic acid at a flow rate of 0.2 mL/min. […] Samples were quantitated over the assay range of 10 to 1000 ng/mL or 0.6 to 60 μg/g. […] Cmax and Tmax were the observed values from the mean data. The AUClast was calculated using the log-linear trapezoidal rule to the end of sample collection (AUClast) and extrapolated to infinity (AUC0-∞) by dividing the last quantifiable concentration by the terminal disposition rate constant (λz), which was determined from the slope of the terminal phase of the concentration-time profile. The half-life (T1/2) was determined by dividing 0.693 by λz. Relative bioavailability was calculated as follows: […]

[4] = Complete blood counts, blood chemistry and histopathology of healthy Balb/C mice
NCI-H929 cells = test: Active caspase-3 by FACS; format: cell-based, human; details: 0.5 μM, 8 h
Experimental: NCI-H929 cells were treated with RA195 (0.5 μM) and Bz(0.5 μM) for the period of 8 h. Cells were stained for PE-conjugated Caspase-3 antibody and measured active caspase-3 by FACS.

[5] = healthy Balb/C mice, 3 doses 40 mg/kg p.o. every third day, mean ± SD, n = 3

Cl.N[C@@H](Cc1ccccc1)C(=O)N1CC(=Cc2ccc(Cl)c(Cl)c2)C(=O)C(=Cc2ccc(Cl)c(Cl)c2)C1 [RA190, 3,5-bis(3,4-dichlorobenzylidene)-1-(S-2-amino-3-phenyl)-piperidin-4-one-HCl salt]
ALBNEW (Albumin) [1]: 2.76 ± 0.23 | ALPNEW (Alkaline Phosphatase) [1]: 55.33 ± 6.50 | ALTNEW (Alanine Aminotransferase) [1]: 31.33 ± 2.30 | AMYL (Amylase) [1]: 621.33 ± 127 | ASTNEW (Aspartate aminotransferase) [1]: 50.33 ± 4.93 | BA(Basophils) [1]: 0.023 ± 0.011 | BUNNEW (Blood Urea Nitrogen) [1]: 26 ± 5.29 | CA (Calcium) [1]: 8.56 ± 0.23 | CHOL (Cholesterol) [1]: 67 ± 4.58 | CK_NEW (Creatinine Kinase) [1]: 131 ± 65.50 | CREAT (Creatinine) [1]: 0.46 ± 0.057 | EO (Eosinophils) [1]: 0.10 ± 0.01 | GGTNEW (Gamma-Glutamyl Transferase) [1]: 5.33 ± 0.57 | GLU (Glucose) [1]: 170.66 ± 6.11 | HCT(Hematocrit) [1]: 50.36 ± 2.45 | HDLNEW (High Density Lipoprotein) [1]: 40.33 ± 4.72 | Hb (Hemoglobin) [1]: 13.26 ± 1.00 | LDH (lactate Dehydrogenase) [1]: 172.06 ± 14.29 | LY(Lymphocytes) [1]: 1.87 ± 0.69 | MCH (Mean corpuscular hemoglobin) [1]: 13.60 ± 0.53 | MCHC (mean corpuscular hemoglobin concentration) [1]: 26.33 ± 0.75 | MCV (Mean corpuscular Volume) [1]: 51.66 ± 2.63 | MO(Monocytes) [1]: 0.25 ± 0.07 | MPV (Mean Platelet Volume) [1]: 5.36 ± 0.06 | NE(Neutrophils) [1]: 2.69 ± 0.45 | PLT (Platelet) [1]: 907 ± 45.92 | RBC (red Blood Cells) [1]: 9.77 ± 0.76 | RDW (Red Blood Cell Distribution Width) [1]: 18.00 ± 0.52 | TBIL1 (Total bilirubin) [1]: 0.233 ± 0.057 | TPROT (Total protein) [1]: 4.46 ± 0.11 | UA (Uric Acid) [1]: 2.86 ± 0.41 | WBC(White Blood Cells) [1]: 7.62 ± 4.17 | IC50 (HeLa): 150 nM | IC50 (OVCAR3): 2000 nM | ES2 tumor growth (bioluminescence) (ES2-luciferase tumor): significantly inhibited | p53 levels [2]: elevated p53 levels | AUC [3]: 4393 ng·h/mL | C1/F [3]: 38.3 mL/min/kg | Cmax [3]: 808 ng/mL | T1/2,α (distribution half-life) [3]: 4.2 h | T1/2,β (terminal half-life) [3]: 25.5 h | Ud/F [3]: 83.61 L/kg | ALBNEW (Albumin) [4, 5]: 3.03 ± 0.05 | ALPNEW (Alkaline Phosphatase) [4, 5]: 84.33 ± 7.57 | ALTNEW (Alanine Aminotransferase) [4, 5]: 39.66 ± 4.04 | AMYL (Amylase) [4, 5]: 743 ± 29.4 | ASTNEW (Aspartate aminotransferase) [4, 5]: 62.66 ± 11.01 | BA(Basophils) [4, 5]: 0.06 ± 0.07 | BUNNEW (Blood Urea Nitrogen) [4, 5]: 20 ± 2.64 | CA (Calcium) [4, 5]: 9 ± 0.2 | CHOL (Cholesterol) [4, 5]: 114 ± 12.12 | CK_NEW (Creatinine Kinase) [4, 5]: 55.66 ± 25.48 | CREAT (Creatinine) [4, 5]: 0.36 ± 0.05 | EO (Eosinophils) [4, 5]: 0.24 ± 0.23 | GGTNEW (Gamma-Glutamyl Transferase) [4, 5]: 4.33 ± 0.57 | GLU (Glucose) [4, 5]: 175.33 ± 20.5 | HCT(Hematocrit) [4, 5]: 55.66 ± 1.70 | HDLNEW (High Density Lipoprotein) [4, 5]: 49 ± 5.29 | Hb (Hemoglobin) [4, 5]: 14.63 ± 0.15 | K (Potassium) [4, 5]: 6.05 ± 0.21 | LDH (lactate Dehydrogenase) [4, 5]: 160 ± 37.51 | LY(Lymphocytes) [4, 5]: 4.78 ± 1.89 | MCH (Mean corpuscular hemoglobin) [4, 5]: 14.10 ± 0.2 | MCHC (mean corpuscular hemoglobin concentration) [4, 5]: 26.33 ± 0.55 | MCV (Mean corpuscular Volume) [4, 5]: 53.60 ± 0.26 | MO(Monocytes) [4, 5]: 0.34 ± 0.28 | MPV (Mean Platelet Volume) [4, 5]: 5.06 ± 0.37 | NE(Neutrophils) [4, 5]: 2.43 ± 0.94 | Na (Sodium) [4, 5]: 147.5 ± 0.70 | PLT (Platelet) [4, 5]: 533 ± 61.65 | RBC (red Blood Cells) [4, 5]: 10.38 ± 0.26 | RDW (Red Blood Cell Distribution Width) [4, 5]: 17.23 ± 0.30 | TBIL1 (Total bilirubin) [4, 5]: 0.26 ± 0.05 | TPROT (Total protein) [4, 5]: 5.16 ± 0.05 | TRIG (Triglycerides) [4, 5]: 107.33 ± 22.40 | UA (Uric Acid) [4, 5]: 1.5 ± 0.26 | WBC(White Blood Cells) [4, 5]: 7.88 ± 3.42 | blood chemistry and hematologic panels versus vehicle ([4]; three doses of 40 mg/kg p.o. every third day, euthanized on day 12): No significant difference

Cl.NCCCC[C@H](NC(=O)OCC1c2ccccc2-c2ccccc21)C(=O)N1C/C(=C\c2ccc(Cl)c(Cl)c2)C(=O)/C(=C/c2ccc(Cl)c(Cl)c2)C1 [RA195]
active caspase-3 (NCI-H929 cells): caused an increase in caspase-3 expression
